Laboratory results from article PMC7725459 (Science Advances, 2020).

Assays:
SARS-CoV-2 M^pro [1] = target: T1, SARS-CoV-2 M^pro (Severe acute respiratory syndrome coronavirus 2, UniProt P0DTD1); format: biochemical; details: versus GC-376
SARS-CoV-2 HM-M^pro = SARS-CoV-2 HM-M^pro (Severe acute respiratory syndrome coronavirus 2, UniProt P0DTD1); format: binding
SARS-CoV-2 M^pro [2] = target: T1, SARS-CoV-2 M^pro; assay: Binding to SARS-CoV-2 M^pro using native mass spectrometry; details: 10 μM ligand, 4 mM DTT

## CC(C)C[C@H](NC(=O)OCc1ccccc1)C(=O)N[C@@H](CC(C)C)C(=O)N[C@@H](CC1CCNC1=O)C(=O)C(=O)NC1CC1 (stereo partly drawn) [UAWJ248]
SARS-CoV-2 M^pro [1]
  fold more potent than GC-376 (k2/KI): 3.2 fold
SARS-CoV-2 HM-M^pro
  ΔTm shift, HM-M^pro construct: 10.01 °C
SARS-CoV-2 M^pro [2]
  binding to M^pro by native mass spectrometry: confirmed
